Assays:
Assay type in all cases: cell-based, Human
iNOS = iNOS expression, Western blot
Protocol: (§1) After treatment, SH-SY5Y cells were washed three times with PBS and then lysis with RIPA lysis buffer containing 1% PMSF and 1% Protease Inhibitor Cocktail and incubated for 30 min on ice. Cell lysates were centrifuged at 12,500 g for 20 min at 4° C. The supernatant was separated and the amount of protein was determined using the BCA protein assay kit (Thermo Scientific Pierce, USA). Protein samples (30 μg) were separated by SDS-PAGE (10% (w/v)) polyacrylamide gel and then transferred to a polyvinylidene difluoride (PVDF) membrane (Bio-Rad, Hercules, Calif.). Subsequently, the membrane was blocked with 5% (v/v) non-fat milk in PBST (PBS containing 0.1% Tween 20) for 1 h at room temperature. The blots were incubated overnight at 4° C. with primary antibodies. […] Quantitative assessment of protein bands was done with Gel Doc™ XRS equipped with Quantity One software.
Augmented NO production subsequent to iNOS induction appears to play an important role in the initial phase of 6-OHDA-induced neuro-damage models in vitro and in vivo (Singh, Das et al. 2005; Lin, Uang et al. 2007; Shih, Chen et al. 2011). […] Expression of the total iNOS proteins were determined by Western blot analysis. […] Results of FIGS. 4A-C are expressed as a percentage of relative fluorescent intensity (RFI) of the Control group. ###P<0.005 versus control group; *p<0.05, **p<0.01 and *** p<0.005 versus 6-OHDA group. […]

ERK1/2 = test: ERK phosphorylation after 6-OHDA, Western blot
Protocol: After treatment, SH-SY5Y cells were washed three times with PBS and then lysis with RIPA lysis buffer containing 1% PMSF and 1% Protease Inhibitor Cocktail and incubated for 30 min on ice. Cell lysates were centrifuged at 12,500 g for 20 min at 4° C. The supernatant was separated and the amount of protein was determined using the BCA protein assay kit (Thermo Scientific Pierce, USA). Protein samples (30 μg) were separated by SDS-PAGE (10% (w/v)) polyacrylamide gel and then transferred to a polyvinylidene difluoride (PVDF) membrane (Bio-Rad, Hercules, Calif.). Subsequently, the membrane was blocked with 5% (v/v) non-fat milk in PBST (PBS containing 0.1% Tween 20) for 1 h at room temperature. The blots were incubated overnight at 4° C. with primary antibodies. After three washes with PBST, the membranes were incubated with horseradish peroxidase-conjugated secondary antibodies (1:2000) in PBST with 5% non-fat milk for 1 h at room temperature. After repeated washes, proteins were visualized with an ECL advanced western blotting detection kit. Photographs of protein bands were taken by a Molecular Imager ChemiDoc XRS (Bio-Rad, Hercules, Calif.). Quantitative assessment of protein bands was done with Gel Doc™ XRS equipped with Quantity One software. […]

Akt = test: p-Akt level after 6-OHDA, Western blot
Protocol: as §1, with “antibodies. After three washes with PBST, the membranes were incubated with horseradish peroxidase-conjugated secondary antibodies (1:2000) in PBST with 5% non-fat milk for 1 h at room temperature.” for “antibodies.”
The inventors also investigated the contribution of the Akt pathway in the neuroprotective effects of SchiA. The inventors measured phosphorylation-Akt (p-Akt) levels after pre-treated with 60 μM SchiA for 12 h and then exposed to 400 μM 6-OHDA for another 4 h (FIGS. 6A and 6B). […]

caspase-3 [1] = test: MPP+-induced caspase-3 activation, Western blot; details: 60 μM 12 h, then 2 mM MPP+ 36 h
Protocol: as §1, with “antibodies. After three washes with PBST, the membranes were incubated with horseradish peroxidase-conjugated secondary antibodies (1:2000) in PBST with 5% non-fat milk for 1 h at room temperature.” for “antibodies.”
The inventors performed Western blot to measure the expression of active-form of caspase-3 and caspase-7 in SH-SY5Y cells. […] Caspase-3 activity was expressed as units per mg protein. ###p<0.005 versus control group; *p<0.05, **p<0.01 and *** p<0.005 versus MPP+ group.

caspase-3 [2] = test: Caspase-3 activity assay (EnzChek kit); details: 60 μM 12 h, then 2 mM MPP+ 36 h
Protocol: Caspase-3 activity was detected using the EnzChek® Caspase-3 Assay Kit according to the manufacturer's protocol. In brief, the reaction mixture (total volume 100 μL) contained 50 μL of cell lysate and 50 μL of caspase-3 substrate (Z-DEVD-R110 substrate; the final concentration is […]) in assay buffer, and the assay was carried out in a 96-well plate. To account for non-specific hydrolysis of substrate, the samples were incubated at room temperature for approximately 30 minutes and measured the fluorescence (excitation/emission˜496/520 nm).
The inventors performed Western blot to measure the expression of active-form of caspase-3 and caspase-7 in SH-SY5Y cells. Cells were pretreated with 60 μM SchiA for 12 h and then treated with 2 mM MPP for another 36 h. Cells were lysed and examined by western blot. […] Caspase-3 activity was expressed as units per mg protein. ###p<0.005 versus control group; *p<0.05, **p<0.01 and *** p<0.005 versus MPP+ group.

Bax and Bcl-2 = Bax and Bcl-2 expression in MPP+-treated cells, Western blot
Protocol: After treatment, SH-SY5Y cells were washed three times with PBS and then lysis with RIPA lysis buffer containing 1% PMSF and 1% Protease Inhibitor Cocktail and incubated for 30 min on ice. Cell lysates were centrifuged at 12,500 g for 20 min at 4° C. The supernatant was separated and the amount of protein was determined using the BCA protein assay kit (Thermo Scientific Pierce, USA). Protein samples (30 μg) were separated by SDS-PAGE (10% (w/v)) polyacrylamide gel and then transferred to a polyvinylidene difluoride (PVDF) membrane (Bio-Rad, Hercules, Calif.). Subsequently, the membrane was blocked with 5% (v/v) non-fat milk in PBST (PBS containing 0.1% Tween 20) for 1 h at room temperature. The blots were incubated overnight at 4° C. with primary antibodies. After three washes with PBST, the membranes were incubated with horseradish peroxidase-conjugated secondary antibodies (1:2000) in PBST with 5% non-fat milk for 1 h at room temperature. After repeated washes, proteins were visualized with an ECL advanced western blotting detection kit. Photographs of protein bands were taken by a Molecular Imager ChemiDoc XRS (Bio-Rad, Hercules, Calif.). Quantitative assessment of protein bands was done with Gel Doc™ XRS equipped with Quantity One software.
To investigate whether SchiA has any effect on the expression of Bax and Bcl-2 proteins in MPP^+-induced SH-SY5Y cells, the expression levels of Bax and Bcl-2 were determined by Western blot analysis. SH-SY5Y cells were pretreated with 60 μM SchiA for 12 h before incubating with 2 mM MPP for 36 h. The expression of Bax or Bcl-2 in cell lysates was determined by Western blot analysis. […] In this study, β-actin was shown as an internal control. In FIGS. 15A-B, the Bax/Bcl-2 ratio are expressed as a percentage of that of the control group. ###P<0.005 versus control group; ***P<0.005 versus MPP group.

[3] = 60 μM 12 h, then 400 μM 6-OHDA 4 h
[4] = 60 μM 12 h, then 2 mM MPP+ 36 h

## COc1cc2c(c(OC)c1OC)-c1c(cc3c(c1OC)OCO3)C[C@H](C)[C@](C)(O)[C@H]2OC(=O)c1ccccc1 [SchiA, Schisantherin A]
iNOS; 60 μM 12 h, then 400 μM 6-OHDA 2 h
  6-OHDA-induced iNOS expression: reduced the expression of iNOS induced by 6-OHDA significantly
iNOS; 60 μM, without 6-OHDA
  iNOS expression, compound alone: no obvious influence
ERK1/2; [3]
  6-OHDA-induced reduction in ERK1/2 phosphorylation: prevented the reduction in ERK1/2 phosphorylation
ERK1/2; 60 μM, without 6-OHDA
  phosphorylated ERK1/2 level, compound alone: did not change
Akt; [3]
  6-OHDA-induced reduction in p-Akt level: prevented the reduction in p-Akt level
Akt; 60 μM, without 6-OHDA
  p-Akt level, compound alone: did not change
caspase-3 [1]
  MPP+-induced caspase-3 activation (active form): significant decrease
caspase-3 [2]
  MPP+-induced elevation of caspase-3 activity: dramatically suppressed
Bax and Bcl-2; [4]
  MPP+-induced down-regulation of Bcl-2 expression: could inhibit the down-regulation of Bcl-2 expression
  MPP+-induced increase of the Bax/Bcl-2 ratio: effectively prevented
Bax and Bcl-2; 60 μM, compared with control group
  Bax protein expression: did not changed significantly
Bax and Bcl-2; 60 μM, without MPP+
  Bcl-2 expression, compound alone: increase the expression of Bcl-2
